Measurements reported in patent US9686989B2, “Synergistic combination of a flurochloridone compound and zinc pyrithione for dry film protection” (Rohm and Haas Company, priority 2013, dated 2017).

Tested on: Chlorella sp. ATCC 7516
Assay: Algal efficacy testing of dry paint film (modified ASTM 5589, 6-well plates)
Format: cell-based
Conditions: 672 h, 4 weeks, pass level ≧75% inhibition
Protocol: Slurries containing 33% antimicrobial active ingredient (flurochloridone) were post added to a white, acrylic/silicone based outdoor paint free of biocides to give a total active ingredient concentration of 10000 and 1000 ppm respectively. KATHON™ 893T (100% OIT) was post added to a white, acrylic/silicone based outdoor paint free of biocides to give a total active ingredient concentration of 10000 and 1000 ppm respectively. These paints were then diluted with an antimicrobial free acrylic/silicone based paint and mixed to prepare targeted concentrations of antimicrobial compounds for the testing. The total biocides concentrations tested were 125, 250, 500, 1000, 2000 and 5000 ppm. After biocides addition or dilution, the paints were mixed 90 seconds with the horse power shaker (AXEL 75M3372/Agitateur SO-10MI) until uniformity was achieved. […]
Each well that contains a tested coupon was inoculated with 1750 μl of algal suspensions (1×10^6 cfu/ml) making sure that the whole surface (paint film as well as the agar surrounding it) was evenly covered. […] The total area inhibited was evaluated at the end of each week according to percent area covered in 5% increments
At the end of the four week incubation period, the samples were scored for percent inhibition regarding color intensity compared to the blank sample. […]
The SI is calculated based on F. C. […]

SMILES	inhibition at 5000 ppm (total conc 5000 ppm in paint)	inhibition at 2000 ppm (total conc 2000 ppm in paint)
O=C1C(Cl)C(CCl)CN1c1cccc(C(F)(F)F)c1 (centres unmarked) [Flurochloridone, 3-chloro-4-(chloromethyl)-1-[3-(trifluoromethyl)phenyl]-2-pyrrolidinone]	90%	–
CCCCCCCCn1sccc1=O [OIT, 2-n-octyl-4-isothiazolin-3-one]	–	65%
